Assay results taken from publication PMC8318231, “Rate-of-Kill (RoK) assays to triage large compound sets for Chagas disease drug discovery: Application to GSK Chagas Box” (PLoS Neglected Tropical Diseases, 2021).

Assays:
[1] = test system: T. cruzi intracellular amastigotes in H9c2 cells; assay: Rate-of-Kill (RoK) high-content imaging assay, amastigotes per cell (AM/CELL) and curve descriptors; format: cell-based, Trypanosoma cruzi; set-up: key to ME_24h / ME_48h / ME_72h: % reduction in parasite burden (cidal response); t50pct_MCC50 / t50pct_Cmax: unit not given here; conditions: for ME_24h: 24h; for ME_48h: 48h; for ME_72h: 72h; for t50%_Cmax / tlag_Cmax / t50pct_Cmax: at Cmax; for ME_24h (%): maximum effect at 24 h; for ME_24h (%) / ME_48h (%) / ME_72h (%): RoK assay; for ME_48h (%): maximum effect at 48 h; for ME_72h (%): maximum effect at 72 h; for ME 24h (maximum effect at 24 hours, intracellular amastigotes): maximum percentage of parasite burden reduction reached by any concentration
Method in brief: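 H9c2 cardiomyocytes infected with T. cruzi trypomastigotes (MOI 8, 18 h), then compounds tested at 5 μM single shot or 11-point 1/3 dilution from 50 μM. DRAQ5-stained nuclei imaged over a time course. Amastigotes per cell normalised to infected cells at 4 h (0%) and non-infected cells (100%).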

TcCYP51 = conditions: formerly reported; cited from earlier work

SMILES	ME_24h ([1]; figure 5)	ME_48h ([1]; figure 5)	ME_72h ([1]; figure 5)	MCCE ([1]; RoK curve descriptor) [µM]	AM/CELL NORM ([1]; Time 4, sheet figure 4 A)	AM/CELL NORM ([1]; Time 24, sheet figure 4 A)	AM/CELL NORM ([1]; Time 48, sheet figure 4 A)	AM/CELL NORM ([1]; Time 72, sheet figure 4 A)	tlag_Cmax [1] [h]	t50pct_Cmax ([1]; figure 5)	tlag_Cmax ([1]; figure 5)	t50%_MCC50 ([1]; at MCC50) [h]	t50pct_MCC50 ([1]; at MCC50, figure 5)	tlag_MCC50 ([1]; at MCC50, figure 5)	MCCE ([1]; figure 5)	ME_24h (%) [1] [%]	ME_48h (%) [1] [%]	ME_72h (%) [1] [%]	ME 24h (maximum effect at 24 hours, intracellular amastigotes) [1] [%]	CYP51 pIC50 (TcCYP51)	also measured
CCCCn1nnnc1CSc1nc(C)cc(C)c1C#N [TCMDC-143315]	53.1743	83.3988	72.5932	0.2	13.5421	53.1743	83.3988	54.3555	4.0	24	4	48.0	48	4	0.2058	53.2	83.4	72.6	53.1743	4.3	MCC50 ([1]; RoK curve descriptor): 0.6 µM; t50%_Cmax [1]: 24.0 h; tlag_MCC50 ([1]; at MCC50): 4.0 h; MCC50 ([1]; figure 5, in µM): 0.6173
Cc1ccc(C)c(OC2CCN(C(=O)C(C)n3ccnc3)CC2)c1 (stereo not drawn) [TCMDC-143481]	-18.0648	-41.8218	55.4241	0.6	-1.4032	-18.0648	-41.8218	1.753	48.0	72	48	72.0	72	48	0.6173	-18.1	-41.8	55.4	-18.0648	7	MCC50 ([1]; RoK curve descriptor): 5.6 µM; tlag_MCC50 ([1]; at MCC50): 48.0 h; MCC50 ([1]; figure 5, in µM): 5.556
CC(=Cc1ccccc1)CN1CCC(=O)N(Cc2cccnc2)CC1 [TCMDC-143421]	-70.7645	-276.175	-1.901	1.9	-0.3924	-98.2079	-300.018	-16.9527	48.0	72	48		72	72	1.852	-70.8	-276.2	-1.9	-70.7645	7	MCC50 ([1]; figure 5): 50 µM
Cc1c(C(C)NC(=O)Nc2cccc(Cl)c2)sc2ncnn12 (stereo not drawn) [TCMDC-143405]	-289.196	-32.4517	41.1216	0.07	-4.394	-289.196	-32.4517	-0.1706	24.0	72	24		72	72	0.06859	-289.2	-32.5	41.1	-289.196	6.9	MCC50 ([1]; figure 5): 50 µM
CN(Cc1ccc(C(N)=O)cc1)C(c1ccc(F)cc1)c1cccnc1 (stereo not drawn) [TCMDC-143504]	-95.1621	-135.708	0.6882	0.6	2.577	-143.385	-163.001	-44.3312		72	48		72	72	0.6173	-95.2	-135.7	0.7	-95.1621	7	MCC50 ([1]; figure 5): 50 µM
N#Cc1cc(N2CCCC2=O)ccc1Sc1ccccc1CO [TCMDC-143604]	-55.9743	36.5881	78.1794	0.6	9.146	-84.052	29.3818	78.3167	24.0	72	24	72.0	72	24	0.6173	-56.0	36.6	78.2	-55.4036	4.7	MCC50 ([1]; RoK curve descriptor): 1.9 µM; t50%_Cmax [1]: 72.0 h; tlag_MCC50 ([1]; at MCC50): 24.0 h; MCC50 ([1]; figure 5, in µM): 1.852
COc1ccc(NS(=O)(=O)c2cccc(NC(=O)c3cc(F)cc(F)c3)c2)cc1 [TCMDC-143108]	74.207	103.042	85.1326	1.9					4.0	24	4	48.0	48	14	1.852	74.2	103.0	85.1	70.2211	< 4	MCC50 ([1]; RoK curve descriptor): 5.6 µM; AM/CELL NORM ([1]; Time 4, figure 4 A): 3.957; AM/CELL NORM ([1]; Time 24, figure 4 A): 27.4841; AM/CELL NORM ([1]; Time 48, figure 4 A): 38.7704; AM/CELL NORM ([1]; Time 72, figure 4 A): 44.9716; t50%_Cmax [1]: 24.0 h; tlag_MCC50 ([1]; at MCC50): 14.0 h; MCC50 ([1]; figure 5, in µM): 5.556
COc1ccccc1-c1c(C)[nH]c2nc(N)nc(C)c12 [TCMDC-143610]	50.657	69.1206	72.4769	0.3	4.093	33.8882	64.2982	71.534	4.0	54	4	52.8	48	4	0.3086	44.7	65.4	70.3	71.8108	4.1	ME (maximum effect) in RoK assay (in words) [1]: high values in ME at the different times; tlag (in words) [1]: short tlag; MCC50 ([1]; RoK curve descriptor): 2.4 µM; t50%_Cmax [1]: 48.0 h; tlag_MCC50 ([1]; at MCC50): 4.0 h; MCC50 ([1]; figure 5, in µM): 1.543
CCC(=O)Nc1ccc(-c2nc3ccc(Cl)cc3[nH]2)cc1 [TCMDC-143135]	52.1566	46.9478	38.7036	5.6	-141.214	-21.5946	-76.5792	-95.9437	4.0	72	4	24.0	24	4	5.556	52.2	47.0	38.7	52.1566	< 4	tlag_MCC50 ([1]; at MCC50): 4.0 h
CN(C)Cc1ccc(N2CCC(NS(=O)(=O)c3ccc(Cl)cc3)CC2)cc1 [TCMDC-143623]	-87.7558	-504.665	-765.031	1.0					38.0	60	38	72.0	72	48	1.029	-87.8	-504.7	-765.0	25.2228	< 4	ME (maximum effect) in RoK assay (in words) [1]: positive ME throughout all times; cidality in the RoK assay (in words) [1]: cidal; tlag (in words) [1]: short tlag times; MCC50 ([1]; RoK curve descriptor): 1.9 µM; AM/CELL NORM ([1]; Time 4, figure 4 A): -0.7307; AM/CELL NORM ([1]; Time 24, figure 4 A): -44.6697; AM/CELL NORM ([1]; Time 48, figure 4 A): 60.0074; AM/CELL NORM ([1]; Time 72, figure 4 A): 92.6225; t50%_Cmax [1]: 60.0 h; tlag_MCC50 ([1]; at MCC50): 24.0 h; MCC50 ([1]; figure 5, in µM): 25.9259
